What all share (assay): relative viability (nuclei count vs DMSO), 5 days (fraction); higher = more cells survive
Compound in one test: O=C(C[C@H]1NCCC[C@@H]1O)Cn1cnc2cc(Br)c(Cl)cc2c1=O (racemic) [Halofuginone]
In a few lines:
(§1)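 Viability here means nuclei in treated wells divided by nuclei in vehicle wells, reported as the median across plates. Only plates with control CV below 25% and at least one doubling passed. Lung cancer cell lines in 1536-well plates were exposed to five √10-spaced library-drug doses for 5 days and counted from 4× Hoechst images in MetaXpress.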

Compound in another test: COc1cc2c(Oc3ccc4[nH]c(C)cc4c3F)ncnc2cc1OCCCN1CCCC1 [Cediranib]
In a few lines:
as §1

Compound in the next test: Nc1ncn([C@H]2C[C@H](O)[C@@H](CO)O2)c(=O)n1 [Decitabine]
In a few lines: as §1

Here are results for one cell line from the supplement of paper PMC10307832.

Take UMC-11: the relative viability in the test with Halofuginone (0.001 µM) amounted to 1.12; with Halofuginone (0.003162 µM), 0.984; with Halofuginone (0.01 µM), 0.97; in the test with Halofuginone (0.03162 µM), 0.901; with Halofuginone (0.1 µM) it was 0.702; with Cediranib (0.04 µM) it was 0.989. In addition, the relative viability turned out to be 0.748 in the test with Cediranib (0.1265 µM); 0.88 with Cediranib (0.4 µM); 0.69 with Cediranib (1.265 µM); 0.92 with Cediranib (4 µM); 0.914 in the test with Decitabine (0.04 µM); 0.8 with Decitabine (0.1265 µM). For the same cell line, the relative viability with Decitabine (0.4 µM) turned out to be 0.536; with Decitabine (1.265 µM), 0.387; in the test with Decitabine (2 µM, anchor plate), 0.638; with Decitabine (4 µM), 0.419.
